The record followed here is PMC7168333, “5-(Carbamoylmethylene)-oxazolidin-2-ones as a Promising Class of Heterocycles Inducing Apoptosis Triggered by Increased ROS Levels and Mitochondrial Dysfunction in Breast and Cervical Cancer” (Biomedicines, 2020).

Common to all, as to format: cell-based, human
Test [1] has as its system MCF-10A cells. The experiment in a line: TUNEL assay, MCF-10A. Particulars: 30 µM, 72 h. Here is the method: (§1) Apoptosis was tested by enzymatic labeling of DNA strand breaks using terminal deoxynucleotidyl transferase-mediated deoxyuridine triphosphate nick end-labeling (TUNEL) assay, following the guidelines of the manufacturer (TUNEL assay kit, Promega, Madison, WI, USA). Briefly, MCF-7 and HeLa cells were added with DMSO or treated with 15 and 30 µM OI, respectively, for 72 h. MCF-10A were added to DMSO or treated using 30 µM OI, for 72 h. Next, nuclear staining was achieved using 0.2 mg/mL 4′,6- diamidino-2-phenylindole (DAPI, Sigma-Aldrich, Milan, Italy) and samples were examined using a fluorescent microscope (Olympus BX4 equipped with CSV1.14 software employing a CAMXC-30 for image acquisition). Images were representative of three independent experiments.

The test system of test [2] is HeLa cells. The experiment in a line: TUNEL assay, HeLa. Conditions: 30 µM, 72 h, control 10%. Here is the method: as §1
A further test deals with MCF-7 cells. Briefly: Mitochondrial staining (MitoTracker Orange / Deep-Red, FACS), MCF-7. Particulars: MCF-7, 15 µM, 24 h. Here is the method:
(§2) Mitochondrial activity was assessed using MitoTracker Orange (Invitrogen, Milan, Italy), a fluorescent dye that enters mitochondria in a membrane potential-dependent way. Mitochondrial mass was determined using MitoTracker Deep-Red (Invitrogen, Milan, Italy), a far red-fluorescent dye that is largely used to label mitochondria. Both MCF-7 and HeLa cells were treated using 15 and 30 µM OI, respectively, for 24 h. Control cells were added with DMSO and simultaneously processed. Then, cells were incubated in the dark for 30–60 min at 37 °C with pre-warmed MitoTracker staining solution (diluted in PBS/CM to reach a final concentration of 10 nM). All the next steps were still carried out in the dark. Cells were rinsed in PBS, harvested, and re-suspended in 300 μL of PBS/CM. Cells were then examined by flow cytometry using Fortessa (BD Bioscience, San Jose, CA, USA). Data analysis was performed using FlowJo software (Tree Star Inc., Ashland, OR, USA).

The subject of test [3] is MCF-10A cells. The experiment in a line: Cell cycle analysis (PI staining, flow cytometry), MCF-10A. Particulars: 30 µM, 24 h. The procedure:
In order to assess cell cycle analysis, MCF-7 and HeLa cells were seeded in 6-well plates, at a density of 2.5 × 10^5 cells/well, then they were added to DMSO or treated using 15 and 30 µM OI, respectively, for 24 h. MCF-10A were seeded as described before, then they were added to DMSO or treated using 30 µM OI, the highest concentration used for cancer cells, for 24 h. Next, cells were harvested by trypsinization, rinsed twice with cold PBS, and pelleted by centrifugation at 1500 rpm for 5 min. Pellets were re-suspended in 70% ice-cold ethanol for 30 min at 4 °C to perform cell fixation. Then, samples were rinsed twice with PBS and stained using a solution containing 3.8 mM sodium citrate (Sigma-Aldrich, Milan, Italy), 100 μg/mL RNAse (Sigma-Aldrich, Milan, Italy), 50 μg/mL propidium iodide (PI, Sigma-Aldrich, Milan, Italy), and 0.1% Igepal (Sigma-Aldrich, Milan, Italy) in PBS for 1 h at 37 °C. Subsequent cytofluorimetric analysis was achieved by BD FACSJazz™ Cell Sorter (Becton Dickinson, Franklin Lakes, NJ, USA).
(In general: Flow cytometry measures light scatter and fluorescence of single cells or particles in a stream.)

Test [4] concerns HeLa cells. Briefly: Mitochondrial staining (MitoTracker Orange / Deep-Red, FACS), HeLa. Conditions: 30 µM, 24 h. The procedure: as §2
Test [5] has as its system cyclin D1, CDK4, phosphorylated Rb in MCF-7 cells. Briefly: Western blot of cell cycle regulators, MCF-7. Conditions: MCF-7, 15 µM, 24 and 72 h. Here is the method: Western blot analysis was conducted basically as previously reported. […] In order to obtain total cell lysates, harvested cells were lysed using 200 μL of lysis buffer as previously reported. Cytosolic and mitochondrial fractions were isolated as already described. Identical amounts of proteins from total lysate, mitochondrial, or cytosolic fraction were resolved on SDS-polyacrylamide gel, blotted to nitrocellulose membrane, and probed with proper primary antibodies (Santa Cruz Biotechnology, Dallas, TX, USA). Immunoreactive products were identified by using ECL Western blotting detection system (Bio-Rad Laboratories, Hercules, CA, USA).
In general terms: A western blot detects proteins with antibodies after separation by electrophoresis.

With `CCN(CC)C(=O)/C=C1/OC(=O)N(Cc2ccccc2)C1(C)C` [OI, (E)-2-(3-benzyl-4,4-dimethyl-2-oxooxazolidin-5-ylidene)-N,N-diethylacetamide], in the test on MCF-10A cells [1], the “effect in TUNEL assay” value was “did not evidence any noticeable effect”. The “apoptotic rate (TUNEL-positive cells)” value in the test with HeLa cells [2] turned out to be 53.2%. Besides, in the test on MCF-7 cells, the “mitochondrial mass (MitoTracker Deep-Red)” value is reported as “decrease”, the “mitochondrial membrane potential (MitoTracker Orange)” value was “decrease” and the “mitochondrial membrane potential per mitochondria (ratio Orange vs. Deep-Red)” value is reported as “significantly decreased”. The “effect on the cell cycle” value with MCF-10A cells [3] is given as “did not evidence any noticeable effect”. In addition, in the test with HeLa cells [4], the “mitochondrial mass (MitoTracker Deep-Red)” value was “decrease”, the “mitochondrial membrane potential (MitoTracker Orange)” value is on record as “decrease” and the “mitochondrial membrane potential per mitochondria (ratio Orange vs. Deep-Red)” value is listed as “significantly decreased”. The “CDK4 protein expression levels” value in test [5] is on record as “remained unaffected”. Besides, in test [5] (time dependent), the “cyclin D1 protein content” value was “significantly reduced” and the “phosphorylated Rb protein content” value was “significantly reduced”.
